Numbered stars: 1 amine (or outer) side, 2 acyl side, 3 side chain; on linkers, the order of the positions; unused ones are H or OH. Bridge positions count the residues as written; N and C are the ends. Square brackets hold non-standard residues; d marks the D form. Peptide text beside a SMILES is read from it. I, II: the chains in the order shown. Actinocin(9to1) = Cc1c2oc3c(C)ccc(C(=O)[*:1])c3nc-2c(C(=O)[*:2])c(N)c1=O; NMeV = CN[C@H](C(=O)O)C(C)C; Sar = CNCC(=O)O
Legend:
[1] = tested on: purified calf thymus DNA; assay: Covalent and noncovalent (intercalative) binding to calf thymus DNA, [DNA base]/[drug] ratios; conditions: 20 mM Tris-HCl pH 7.4, 37° C.
Procedure: ^b Binding to purified calf thymus DNA in 20 mM TrisHCl, ph 7.4 buffe
at 37° C.; A values are molar ratios of DNA to drug based on the
total amount of drug that is bound both intercalatively and covalently to
^c B values are similar ratios assayed on the basis of drugs bound
entirely by covalent bonding to DNA base.

[2] = tested on: B16 melanoma; assay: B16 melanoma implanted ip, drug ip (ip-ip) in BDF1 mice; format: in vivo
Procedure: (§1) Subcutaneously implanted B16 melanoma in BDF1 mice is a slow growing tumor, but its rate of growth becomes faster when it is implanted ip. […] This is not consistent with data in other tumors; however, in this connection it should be pointed out that the combined effects of drugs (or enantiomers in this case) can be manifested in several ways, i.e., they can be synergistic, additive, or subtractive.
(§2) 0.2 ml of brei (tumor weight/Hank's balanced salt solution, (1:5) of B16
(§3) implanted sc or ip into groups of nine BDF1 mice on day 0. Drugs
(§4) administered iv on day 1 or ip on days 1, 5, and 9, following tumor
(§5) administered ip on days 1, 5, and 9. OD, optimal dose in
(§6) milligrams/milliliter of vehicle, and administered iv or ip in 0.1 mL of
(§7) vehicle (5% v/v Me2 SOsaline). MST, median survival times in days of
(§8) tumor bearing and nondrug treated (control) or drugtreated mice. % ILS,
(§9) percent increase in life span of drug treated groups over the control
(§10) group of test animals, excluding survivors. (surv), number of sixty day
(§11) survivors/number of mice treated with drug.

[3] = tested on: leukemia L1210; assay: Activity in mice bearing leukemia L1210; format: in vivo; conditions: L1210 ip in CDF1 mouse
Source text: ^e OD, optimal dose of drugs in milligrams/killograms per injection,
administered ip on days 1, 5, and 9, following ip inoculation with
^f % ILS, percent increase in median life span in days, of the
tumorbearing drugtreated dying animals when compared with similar tumor
bearing mice but not treated with drugs. (surv), number of over 60 days
survivors/number of animals tested.

[4] = tested on: P388/ADR; assay: Inhibition of growth in vitro of P388/ADR cells; format: cell-based, mouse; conditions: actively growing tumor cells
Procedure: (§12) The analogues are assayed for in vitro growth inhibitory activity against several experimental tumor lines including human and murine leukemia, mouse melanoma, and human lymphoblastic leukemia.

[5] = tested on: B16; assay: Inhibition of growth in vitro of B16 cells; format: cell-based, mouse; conditions: actively growing tumor cells
Procedure: as §12

[6] = tested on: RNA synthesis in L1210 cells; assay: Inhibition of RNA synthesis in L1210 ([5-3H]uridine incorporation); format: cell-based, Murine; conditions: [5-3H]uridine incorporation into RNA; read-out: inhibition of synthesis of nucleic acids in L1210 IC50 RNA
Procedure: (§13) ^a Drug concentration (micromolor) for 50% reduction of incorporation
(§14) of [methyl^14 C]thymidine into DNA^b and [5^3 H] uridine into
(§15) RNA^c from the rate of incorporation of the same radionucleotides in
(§16) nondrug treated L1210 cells growing actively in vitro.
(§17) Inhibition of nucleic acid synthesis in L1210 lymphoid leukemia cells by (±)-EPA and it optical isomers are assayed. […] To achieve this, a digestion of the nucleic acid pellet with DNase-free RNase enzyme, prior to final pelleting of the DNA precipitate is made to ensure that no more than ±8% contamination from […] into DNA takes place, and for this the necessary correction is made in the data reported in Table V.

[7] = tested on: L1210 cells; assay: Inhibition of growth of L1210 cells in culture; format: cell-based, Murine
Procedure: as §12

[8] = tested on: C26 colon carcinoma; assay: C26 colon carcinoma implanted in CDF1 mice, drug ip; format: in vivo
Procedure: implantation. Primary colon C26 carcinoma (tripan blue excluding, 2.5
× 10^5 cells/mouse) implanted in CDF1 mice on day 0; drug
as §5, §6, §7, §8, §9, §10, §11

[9] = cited from earlier work
[10] = tested on: DNA synthesis in L1210 cells; assay: Inhibition of DNA synthesis in L1210 ([methyl-14C]thymidine incorporation); format: cell-based, Murine; conditions: [methyl-14C]thymidine incorporation into DNA; read-out: inhibition of synthesis of nucleic acids in L1210 IC50 DNA
Procedure: as §13, §14, §15, §16, §17

[11] = tested on: P388/ADR; assay: Antitumor activity against ip implanted P388/ADR in CDF1 mice; format: in vivo; set-up: OD (optimal dose of drugs): unit not given here
Procedure: ^e Optimal dose of drugs.
^ f Median survival time of tumor bearing mice.
^g Percent increase in median life time in days of drugtreated dying
animals vs those of controls; (survivors), number of 60 days
survivors/number of animals tested in the group.
In order to examine a broader spectrum of activity, these optical isomers are tested in two other mouse leukemia cell lines in vivo. One cell line, P388/ADR, is a derivative of the above P388/S made resistant to intercalating agents like […].

[12] = tested on: B16 melanoma; assay: B16 melanoma implanted sc, drug iv (sc-iv) in BDF1 mice; format: in vivo
Procedure: as §1, §2, §3, §4, §5, §6, §7, §8, §9, §10, §11

[13] = tested on: CCRF-CEM; assay: In vitro growth inhibition of CCRF-CEM human lymphoblastic leukemia cells; format: cell-based; conditions: purer (90%) form of isomers
Procedure: as §12

[14] = tested on: Calf Thymus DNA; assay: Thermal denaturation (ΔTm) of DNA-drug complex; format: binding; conditions: 0.01 phosphate buffer pH 7.0, 5% Me2SO; in °C (unit assumed)
Procedure: ^a ΔTm = Tm of DNAdrug complex minus Tm of
drugfree DNA; concentration of drug 14.0 nM and that of DNA 70 nM in 0.01
phosphate buffer, pH 7.0, 5 × 10^3 EDTA and 5% Me2 SO.
DNA-binding experiments were carried out in 0.01M phosphate buffer (pH7), containing EDTA (10^-5 M).

[15] = B16 ip implanted, drug ip days 1, 5, 9
[16] = ip days 1, 5, 9, at optimal dose
[17] = B16 sc implanted, drug iv day 1

Compound: Cc1c2oc3c(C)ccc(C(=O)N[C@@H]4C(=O)N[C@H](C(C)C)C(=O)N5CCC[C@H]5C(=O)N(C)CC(=O)N(C)[C@@H](C(C)C)C(=O)O[C@@H]4C)c3nc-2c(C(=O)N[C@@H]2C(=O)N[C@H](C(C)C)C(=O)N3CCC[C@H]3C(=O)N(C)CC(=O)N(C)[C@@H](C(C)C)C(=O)O[C@@H]2C)c(N)c1=O [1b(AMD), Actinomycin D] (I: T[dV]P[Sar][NMeV] / II: T[dV]P[Sar][NMeV]; ester I:1-I:C, II:1-II:C; linker I:N-II:N via Actinocin(9to1))
- [DNA base]/[drug] A: molar ratio of DNA to drug, total drug bound intercalatively and covalently [1]: 26 ± 2
- % ILS [2, 15]: 52%
- (surv) sixty day survivors/number of mice treated [2, 15]: 0/9
- MST (median survival time) [2, 15]: 29.0 days
- OD (optimal dose) ([2]; B16 ip implanted, drug ip days 1, 5, 9, 0.1 mL vehicle): 0.25 milligrams/milliliter of vehic
- activity against ip implanted B16 tumor, in words ([2]; ip administered): only moderately active
- OD (optimal dose) ([3]; ip days 1, 5, 9): 0.025 milligrams/killograms per inje
- % ILS (percent increase in median life span) [3, 16]: 55%
- (surv) number of over 60 days survivors/number of animals tested [3, 16]: 0/9
- inhibition of growth ID50 P388/ADR [4]: 2500 ± 250 nM
- inhibition of growth ID50 B16 [5]: 3.0 ± 1.0 nM
- IC50 [6]: 19 ± 6 nM
- inhibition of growth of L1210 cells in culture; ID50 [7]: 60.1 ± 9.8 nM
- % ILS ([8]; drug ip days 1, 5, 9): 52%
- (surv) sixty day survivors/number of mice treated ([8]; drug ip days 1, 5, 9): 0/10
- MST ([8]; drug ip days 1, 5, 9): 33.5 days
- OD (optimal dose) ([8]; drug ip days 1, 5, 9, 0.1 mL vehicle): 0.30 milligrams/milliliter of vehic
- metabolism in vivo [9]: not metabolized in vivo
- IC50 [10]: 380 ± 28 nM
- % ILS (percent increase in median life time vs controls) ([11]; ip qd 1-9, at optimal dose): 33%
- (surv) number of 60 days survivors/number of animals tested ([11]; ip qd 1-9, at optimal dose): 0/10
- MST (median survival time) ([11]; ip qd 1-9, at optimal dose): 12 days
- OD (optimal dose of drugs) ([11]; treated ip qd 1-9): 0.075
- % ILS [12, 17]: 36%
- (surv) sixty day survivors/number of mice treated [12, 17]: 0/9
- MST (median survival time) [12, 17]: 45.0 days
- OD (optimal dose) ([12]; B16 sc implanted, drug iv day 1, 0.1 mL vehicle): 0.9 milligrams/milliliter of vehic
- activity against sc implanted B16 tumor, in words ([12]; iv administered): only marginally active
- 50% growth inhibitory dose (ID50) [13]: 12.5 nM
- Tm (ΔTm = Tm of DNA-drug complex minus Tm of drug-free DNA) [14]: 7.1 ± 0.15

From patent US5155209A, “R-(+) enantiomeric form of 7-(2, 3-epoxypropoxy) actinomycin D” (priority 1991, dated 1992)
